This is an account of results in patent US9896447B2, “TrkA kinase inhibitors, compositions and methods thereof” (MERCK SHARP & DOHME CORP., priority 2013, dated 2018).

TrkA receptor, sequence (P04629 33-796): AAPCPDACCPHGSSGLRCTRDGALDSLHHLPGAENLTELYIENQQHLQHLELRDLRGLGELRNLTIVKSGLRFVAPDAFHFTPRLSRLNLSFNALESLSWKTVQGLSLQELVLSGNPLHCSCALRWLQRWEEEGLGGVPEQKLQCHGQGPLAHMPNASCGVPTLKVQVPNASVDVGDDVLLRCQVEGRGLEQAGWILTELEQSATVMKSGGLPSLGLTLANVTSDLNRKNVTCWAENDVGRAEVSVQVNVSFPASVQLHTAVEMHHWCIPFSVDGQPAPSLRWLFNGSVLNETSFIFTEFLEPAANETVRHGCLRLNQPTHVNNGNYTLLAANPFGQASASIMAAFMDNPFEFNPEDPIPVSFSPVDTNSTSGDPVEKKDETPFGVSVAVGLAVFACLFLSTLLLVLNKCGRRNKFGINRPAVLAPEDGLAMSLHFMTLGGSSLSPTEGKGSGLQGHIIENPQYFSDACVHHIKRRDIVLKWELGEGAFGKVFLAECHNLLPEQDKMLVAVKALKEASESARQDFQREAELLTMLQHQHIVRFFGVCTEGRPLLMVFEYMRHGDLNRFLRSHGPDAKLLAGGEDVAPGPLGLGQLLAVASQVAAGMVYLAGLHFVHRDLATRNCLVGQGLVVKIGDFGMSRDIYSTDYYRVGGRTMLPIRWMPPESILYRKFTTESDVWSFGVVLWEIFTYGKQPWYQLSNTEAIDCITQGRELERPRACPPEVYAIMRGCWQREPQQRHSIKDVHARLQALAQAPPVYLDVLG

The target of this assay is TrkA receptor (Homo sapiens (Human), UniProt P04629). The assay can be described thus: DiscoverX PathHunter TrkA functional assay (U2OS cells, NGF stimulated). The class given is cell-based. Particulars: U2OS cells expressing TrkA-Prolink and Shc1-EA; compound 1 hour, then EC80 of NGF for 3 hours; luminescence. The protocol:
TrkA functional activity was measured using a DiscoverX PathHunter assay. In this assay, U2OS cells are express TrkA receptor as a fusion with the weakly complementing fragment of B-galactosidase, which DiscoverX calls “Prolink (PK)”; additionally, Shc1 is fused with a larger fragment, which is called “Enzyme Acceptor (EA)”. Activation of the TrkA receptor, upon NGF addition, results in the kinase domain being phosphorylated, resulting in subsequent recruitment of Shc1-EA protein. That recruitment results in an active B-galactosidase enzyme that is detected by addition of a chemiluminescent substrate.
All reagents were purchased from DiscoverX, except for the receptor agonists (NGF, BDNF, NT3) which were purchased from Peprotech. Cells were expanded and frozen into cryovials (TrkA p75 @ passage 13, 1.5×10^7 cells/vial; TrkC p75 @ passage 11, 1.5×10^7 cells/vial in InVitrogen Recovery Cell Freezing media), and stored in the vapor phase of liquid nitrogen, and thawed immediately before use. Thawed cells were added to a 384-well plate (BD Falcon 384-well white/clear, TC surface 120 uL assay plates (353963), 20 uL of 0.375e6 cells/mL=>7500 cells/well), and allowed to incubate overnight. Compound (10 mM starting dose: 202.5 nL compound yielding 0.81% DMSO final in total assay volume and starting doses 81 uM) was added the following morning and allowed to incubate on cells for 1 hour. Then, 5 uL EC80 of agonist (NGF for TrkA; BDNF for TrkB; NT3 for TrkC) was added and allowed to incubate for 3 hours at room temperature. DiscoverX PathHunter detection reagent is added (12 uL to plate and components diluted in parts as per kit instructions) and the plate is further incubated for 1 hour in the dark. The plate is read via luminescence on the Perkin Elmer Envision.
By IC50 is commonly meant the concentration that inhibits the measured activity by half. A low value points to greater potency in that assay. `Cc1ncc(NC(=O)NCc2ccccc2SC(F)(F)F)c(-c2ccccc2)n1` [Compound 40, 1-(2-methyl-4-phenylpyrimidin-5-yl)-3-{2-[(trifluoromethyl)sulfanyl]benzyl}urea] returned an IC50 of 680 nM. Next, `Cc1ncc(NC(=O)N[C@@H](C)C2CCCCC2)c(-c2ccccc2)n1` [Compound 41, 1-[(1S)-1-cyclohexylethyl]-3-(2-methyl-4-phenylpyrimidin-5-yl)urea]: 2100 nM; `Cn1ncc(NC(=O)NCc2ccccc2C(F)(F)F)c1-c1ccccc1` [Compound 42, 1-(1-methyl-5-phenyl-1H-pyrazol-4-yl)-3-[2-(trifluoromethyl)benzyl]urea]: 1400 nM.

Consider `Cc1ncc(NC(=O)NCc2cc(F)ccc2C(F)(F)F)c(-c2ccccc2)n1` [Compound 43, 1-[5-fluoro-2-(trifluoromethyl)benzyl]-3-(2-methyl-4-phenylpyrimidin-5-yl)urea], for which the IC50 worked out at 1400 nM. With `O=C(NCc1ccccc1SC(F)(F)F)Nc1ccnn1-c1ccccc1` [Compound 44, 1-(1-phenyl-1H-pyrazol-5-yl)-3-{2-[(trifluoromethyl)sulfanyl]benzyl}urea] the figure was 420 nM; with `Cc1onc(-c2ccccc2)c1NC(=O)NCc1ccccc1SC(F)(F)F` [Compound 45, 1-(5-methyl-3-phenylisoxazol-4-yl)-3-{2-[(trifluoromethyl)sulfanyl]benzyl}urea], 420 nM; with `Cn1ncc(NC(=O)NCc2ccccc2OC(F)(F)F)c1-c1ccccc1` [Compound 46, 1-(1-methyl-5-phenyl-1H-pyrazol-4-yl)-3-[2-(trifluoromethoxy)benzyl]urea], 1600 nM.
